Results reported in patent US20130053381A1, “2,4-DIOXO-1,4-DIHYDRO-2H-QUINAZOLIN-3-YL-SULFONAMIDE DERIVATIVES” (NOVARTIS AG, priority 2010, published 2013).
Like-named read-outs stand apart in the source and are kept apart here.

Assays:
[1] = molecular target: AMPA receptor; assay: [3H]CNQX binding test (AMPA-receptor binding); parameters: species or system rat
Description: CNQX binding test (Honore et al. Biochem. Pharmacol. 1989, 38: 3207-3212). This test is performed as follows.
Brain membranes: The animals are sacrificed, the brain removed and homogenized in 10 volumes of ice-cold 10% sucrose with a glass/Teflon homogenizer at positions 5 for 30 sec. The membranes are centrifuged at 1000×g for 10 min, and the supernatant centrifuged at 20,000×g for 15 min. The resulting pellet is resuspended in 10 volumes of cold water with a tissue homogenizer (Brinkman Polytron) at position 5 for 15 sec and the suspension centrifuged at 8000×g for 10 min. The supernatant including the buffy layer is centrifuged at 40,000×g for 20 min, the pellet resuspended in 5 volumes of water and the suspension frozen (20-30 min in dry ice/MeOH) and thawed (water-bath at 37° C.) twice. The suspension is centrifuged at 40,000×g for 20 min, the pellet resuspended in 50 mM HEPES/KOH, pH 7.5, and centrifuged at 40,000×g for 10 min. The final pellet is resuspended with a glass/Teflon homogenizer in 5 volumes of HEPES/KOH buffer; 2 mL aliquots are frozen and stored in liquid nitrogen.
Pretreatment of membranes: Membranes are thawed at 35° C. and once washed with 50 mM HEPES/KOH by centrifugation at 39,000×g for 10 min. The final pellet is resuspended with a glass/Teflon homogenizer in the same buffer.
Radioligand binding assay: It is performed using 96-well microtiterplates in a volume of 0.3 mL of 50 mM HEPES/KOH, pH 7.2, 100 μg membrane protein, 5 nM [^3H]-CNQX (NEN) and the compound to be tested. Incubation is performed at 4° C. for 40 min and the reaction is terminated by centrifugation (Sigma 4K10) at 3700×g for 30 min. The pellet is washed once with cold buffer and then dissolved in 0.02 mL of the tissue solubilizer Soluene for 20 min. Two hundred μL of the scintillation fluid Microscint 20 (Packard) are added and the radioactivity is counted in a Packard Topcount scintillation counter at an efficiency of 40-45%. Nonspecific binding is defined by 10 μM CNQX. Assays are performed in triplicate.

[2] = tested on: OF1 mice; assay: Maximal electroshock test (MES Test); type: in vivo; settings: for responders at 50 mg/kg: p.o.
Outline: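 Compound given p.o. (typically 50 mg/kg) 1 h before tonic-clonic convulsions were induced via temporal electrodes (50 Hz, 18 mA, 0.2 s); seizure lasting 3 s or less counted as protection. Read-out is percent protected of five mice per condition; ED50 calculated, blood exposure sampled after shock.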

[3] = Table 2 parent compounds, rat, read-out: [3H]CNQX IC50 AMPA receptor binding, rat
[4] = Mus musculus, po, pre-treatment time −1 h, read-out: %-Protection
[5] = Table 1A parent compounds, AMPA-receptor binding as described for Table 2, read-out: IC50

| SMILES | IC50 [1, 3] | IC50 [1, 5] | further results |
| --- | --- | --- | --- |
| Cn1nccc1-c1cc2c(=O)n(NS(C)(=O)=O)c(=O)[nH]c2cc1C(F)(F)F [Example 1.0, N-[6-(2-methyl-2H-pyrazol-3-yl)-2,4-dioxo-7-trifluoromethyl-1,4-dihydro-2H-quinazolin-3-yl]-methanesulfonamide] | 208 nM |  | responders at 50 mg/kg [2, 4]: 20% |
| CCc1cc2[nH]c(=O)n(NS(C)(=O)=O)c(=O)c2cc1-c1ccnn1C [Example 2.0, N-[7-ethyl-6-(2-methyl-2H-pyrazol-3-yl)-2,4-dioxo-1,4-dihydro-2H-quinazolin-3-yl]-methanesulfonamide] | 257 nM |  | responders at 50 mg/kg [2, 4]: 80% |
| CC(C)c1cc2[nH]c(=O)n(NS(C)(=O)=O)c(=O)c2cc1-c1ccnn1C [Example 3.0, N-[7-isopropyl-6-(2-methyl-2H-pyrazol-3-yl)-2,4-dioxo-1,4-dihydro-2H-quinazolin-3-yl]-methanesulfonamide] | 189 nM |  | responders at 15 mg/kg ([2]; Mus musculus, po, Dose: 15 mg/kg, p.o. (footnote c), pre-treatment time −1 h, read-out: %-Protection): 100%; responders at 50 mg/kg ([2]; Mus musculus, po, Table 5, pre-treatment time −0.25 h, read-out: %-Protection): 0%; responders at 50 mg/kg ([2]; Mus musculus, po, Table 5, pre-treatment time −0.5 h, read-out: %-Protection): 100%; responders at 50 mg/kg ([2]; Mus musculus, po, Table 5, pre-treatment time −1 h, read-out: %-Protection): 100% |
| CS(=O)(=O)Nn1c(=O)[nH]c2cc(C(F)(F)F)c(-n3ccnc3)cc2c1=O [Example 4.0, N-(6-imidazol-1-yl-2,4-dioxo-7-trifluoromethyl-1,4-dihydro-2H-quinazolin-3-yl)-methanesulfonamide] | 42 nM |  | ED50 ([2]; Mus musculus, ip, pre-treatment time −0.25 h (footnote g)): 10.7 mg/kg; responders at 50 mg/kg [2, 4]: 0%; %-seizure protection ([2]; single 50 mg/kg p.o. dose, 30 min after treatment, MES Test): 0% |
| CC(C)n1nccc1-c1cc2c(=O)n(NS(C)(=O)=O)c(=O)[nH]c2cc1C(F)(F)F [Example 5.0, N-[6-(2-isopropyl-2H-pyrazol-3-yl)-2,4-dioxo-7-trifluoromethyl-1,4-dihydro-2H-quinazolin-3-yl]-methanesulfonamide] | 87 nM |  | responders at 50 mg/kg [2, 4]: 80% |
| CC(C)n1nccc1-c1cc2c(=O)n(NS(C)(=O)=O)c(=O)[nH]c2cc1C(F)F [Example 6.0, N-[7-difluoromethyl-6-(2-isopropyl-2H-pyrazol-3-yl)-2,4-dioxo-1,4-dihydro-2H-quinazolin-3-yl]-methanesulfonamide] | 110 nM |  | responders at 50 mg/kg [2, 4]: 80%; responders at 25 mg/kg ([2]; Mus musculus, po, Dose: 25 mg/kg, p.o. (footnote b), pre-treatment time −1 h, read-out: %-Protection): 20% |
| CS(=O)(=O)Nn1c(=O)[nH]c2cc(C(F)(F)F)c(-n3cccc3)cc2c1=O [Example 8.0, N-(2,4-dioxo-6-pyrrol-1-yl-7-trifluoromethyl-1,4-dihydro-2H-quinazolin-3-yl)-methanesulfonamide] | 162 nM |  | responders at 50 mg/kg [2, 4]: 40% |
| CS(=O)(=O)Nn1c(=O)[nH]c2cc(C(F)(F)F)c(-n3cnnc3)cc2c1=O [Example 9.0, N-(2,4-dioxo-6-[1,2,4]triazol-4-yl-7-trifluoromethyl-1,4-dihydro-2H-quinazolin-3-yl)-methanesulfonamide] | 46 nM |  | responders at 50 mg/kg ([2]; Mus musculus, po, pre-treatment time −2 h (footnote a), read-out: %-Protection): 20% |
| CS(=O)(=O)Nn1c(=O)[nH]c2cc(C(F)(F)F)c([C@H]3CCCO3)cc2c1=O [Example 10.0, N—((R)-2,4-dioxo-6-tetrahydro-furan-2-yl-7-trifluoromethyl-1,4-dihydro-2H-quinazolin-3-yl)-methanesulfonamide] | 159 nM |  | responders at 50 mg/kg ([2]; Mus musculus, po, pre-treatment time −0.5 h (footnote d), read-out: %-Protection): 0%; responders at 50 mg/kg [2, 4]: 100% |
| CCC(OC)c1cc2c(=O)n(NS(C)(=O)=O)c(=O)[nH]c2cc1C(F)(F)F (stereo not shown) [Example 11.0, N-[2,4-Dioxo-6-(1-methoxy-propyl)-7-trifluoromethyl-1,4-dihydro-2H-quinazolin-3-yl]-methanesulfonamide] | 317 nM |  | responders at 50 mg/kg [2, 4]: 100% |
| CCC(O)c1cc2c(=O)n(NS(C)(=O)=O)c(=O)[nH]c2cc1C(F)(F)F (stereo not shown) [Example 12.0, N-[6-(1-hydroxy-propyl)-2,4-dioxo-7-trifluoromethyl-1,4-dihydro-2H-quinazolin-3-yl]-methanesulfonamide] | 162 nM |  | responders at 50 mg/kg [2, 4]: 40% |
| CCc1cc2[nH]c(=O)n(NS(C)(=O)=O)c(=O)c2cc1-c1ccnn1CC [Example 13.0, N-[7-ethyl-6-(2-ethyl-2H-pyrazol-3-yl)-2,4-dioxo-1,4-dihydro-2H-quinazolin-3-yl]-methanesulfonamide] | 341 nM |  | responders at 50 mg/kg [2, 4]: 60% |
| CCOC(CC)c1cc2c(=O)n(NS(C)(=O)=O)c(=O)[nH]c2cc1C(F)(F)F (stereo not shown) [Example 26.0] |  | 510 nM |  |
| CCCC(OC)c1cc2c(=O)n(NS(C)(=O)=O)c(=O)[nH]c2cc1C(F)(F)F (stereo not shown) [Example 27.0] |  | 720 nM |  |
| COC(c1cc2c(=O)n(NS(C)(=O)=O)c(=O)[nH]c2cc1C(F)(F)F)C(C)C (stereo not shown) [Example 28.0] |  | 1040 nM |  |
| CS(=O)(=O)Nn1c(=O)[nH]c2cc(C(F)(F)F)c(C3CCCCO3)cc2c1=O (stereo not shown) [Example 29.0] |  | 1080 nM |  |
| CS(=O)(=O)Nn1c(=O)[nH]c2cc(C(F)(F)F)c(C3CCOC3)cc2c1=O (stereo not shown) [Example 30.0] |  | 220 nM |  |
| CS(=O)(=O)Nn1c(=O)[nH]c2cc(C(F)(F)F)c(-c3ccnn3O)cc2c1=O [Example 31.0] |  | 140 nM |  |
| COCCn1nccc1-c1cc2c(=O)n(NS(C)(=O)=O)c(=O)[nH]c2cc1C(F)(F)F [Example 32.0] |  | 310 nM |  |
| CC(C)n1nccc1-c1cc2c(=O)n(NS(C)(=O)=O)c(=O)[nH]c2cc1CF [Example 33.0] |  | 440 nM |  |

| SMILES | IC50 [1, 3] | IC50 [1, 5] | further results |
| --- | --- | --- | --- |
| Cn1nccc1-c1cc2c(=O)n(NS(C)(=O)=O)c(=O)[nH]c2cc1C(F)F [Example 34.0] |  | 260 nM |  |
| CC(C)n1nccc1-c1cc2c(=O)n(NS(C)(=O)=O)c(=O)[nH]c2cc1C(F)F [Example 35.0] |  | 110 nM |  |
| COCCn1nccc1-c1cc2c(=O)n(NS(C)(=O)=O)c(=O)[nH]c2cc1C(C)C [Example 36.0] |  | 320 nM |  |
| CC(C)c1cc2[nH]c(=O)n(NS(C)(=O)=O)c(=O)c2cc1-c1ccnn1C(C)C [Example 37.0] |  | 430 nM |  |
| CS(=O)(=O)Nn1c(=O)[nH]c2cc(C(F)(F)F)c(-c3ccn[nH]3)cc2c1=O [Example 38.0] |  | 470 nM |  |
| Cn1nccc1-c1cc2c(=O)n(NS(C)(=O)=O)c(=O)[nH]c2cc1CF [Example 39.0] |  | 770 nM |  |
| CC(C)n1nccc1-c1cc2c(=O)n(NS(C)(=O)=O)c(=O)[nH]c2cc1C(C)(F)F [Example 40.0] |  | 210 nM |  |
| Cn1nccc1-c1cc2c(=O)n(NS(C)(=O)=O)c(=O)[nH]c2cc1C(C)(F)F [Example 41.0] |  | 580 nM |  |
| CC(F)c1cc2[nH]c(=O)n(NS(C)(=O)=O)c(=O)c2cc1-c1ccnn1C(C)C (stereo not shown) [Example 42.0] |  | 220 nM |  |
| CC(F)c1cc2[nH]c(=O)n(NS(C)(=O)=O)c(=O)c2cc1-c1ccnn1C (stereo not shown) [Example 43.0] |  | 700 nM |  |
| CC(C)c1cc2[nH]c(=O)n(NS(C)(=O)=O)c(=O)c2cc1C1CCOC1 (stereo not shown) [Example 44.0] |  | 2200 nM |  |
| CC(C)c1cc2[nH]c(=O)n(NS(C)(=O)=O)c(=O)c2cc1-c1ccnn1[C@@H]1CCOC1 [Example 45.0] |  | 560 nM |  |
| CS(=O)(=O)Nn1c(=O)[nH]c2cc(C(F)(F)F)c(-c3ccnn3C3CCCC3)cc2c1=O [Example 46.0] |  | 1200 nM |  |
| CS(=O)(=O)Nn1c(=O)[nH]c2cc(C(F)(F)F)c([C@H]3CO[C@@H](CO)C3)cc2c1=O [Example 47.0] |  | 370 nM |  |
| C[C@@H]1COC[C@@H]1c1cc2c(=O)n(NS(C)(=O)=O)c(=O)[nH]c2cc1C(F)(F)F [Example 48.0] |  | 520 nM |  |
| CC(C)c1cc2[nH]c(=O)n(NS(C)(=O)=O)c(=O)c2cc1-c1ccnn1-c1ccccc1 [Example 49.0] |  | 3500 nM |  |
| CCOC(C)c1cc2c(=O)n(NS(C)(=O)=O)c(=O)[nH]c2cc1CC (stereo not shown) [Example 50.0] |  | 1850 nM |  |
| CC(OCc1ccccc1)c1cc2c(=O)n(NS(C)(=O)=O)c(=O)[nH]c2cc1C(F)(F)F (stereo not shown) [Example 51.0] |  | 780 nM |  |
| CC(OCC(F)(F)F)c1cc2c(=O)n(NS(C)(=O)=O)c(=O)[nH]c2cc1C(F)(F)F (stereo not shown) [Example 52.0] |  | 1120 nM |  |
